Measured values published in paper PMC7316994, “In Vitro Pharmacological Profile of a New Small Molecule Bradykinin B2 Receptor Antagonist” (Frontiers in Pharmacology, 2020).
Where two headings read alike, the source gives them in different places.

Assays:
[1] = target: T1, Benzodiazepine BZD (peripheral) (Rattus norvegicus, UniProt P16257); test: radioligand binding (Table S2)
T1 construct: tissue Eurofins; host or cells: rat heart

Bombesin BB1 = target: T2, Bombesin BB1 (Homo sapiens, UniProt P28336); test: radioligand binding (Table S2); conditions: [125I] [Tyr4]-bombesin, Human recombinant CHO cells
T2 construct: host or cells: CHO cells
T2 sequence (P28336 whole entry): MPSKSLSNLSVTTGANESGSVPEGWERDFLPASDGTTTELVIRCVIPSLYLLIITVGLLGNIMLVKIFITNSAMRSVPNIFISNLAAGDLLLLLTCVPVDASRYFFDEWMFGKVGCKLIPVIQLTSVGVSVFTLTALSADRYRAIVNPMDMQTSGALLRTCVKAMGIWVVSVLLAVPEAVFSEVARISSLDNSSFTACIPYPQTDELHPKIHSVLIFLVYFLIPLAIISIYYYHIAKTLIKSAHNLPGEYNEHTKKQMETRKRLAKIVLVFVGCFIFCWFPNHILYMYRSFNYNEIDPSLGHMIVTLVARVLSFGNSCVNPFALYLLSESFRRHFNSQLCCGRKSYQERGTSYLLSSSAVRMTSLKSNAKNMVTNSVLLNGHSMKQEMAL

Chemokine CXCR4 = Chemokine CXCR4 (Homo sapiens, UniProt P61073); test: radioligand binding (Table S2); conditions: [125I] SDF-1α, Human recombinant Chem-1 cells
Chain of Chemokine CXCR4 (P61073 whole entry): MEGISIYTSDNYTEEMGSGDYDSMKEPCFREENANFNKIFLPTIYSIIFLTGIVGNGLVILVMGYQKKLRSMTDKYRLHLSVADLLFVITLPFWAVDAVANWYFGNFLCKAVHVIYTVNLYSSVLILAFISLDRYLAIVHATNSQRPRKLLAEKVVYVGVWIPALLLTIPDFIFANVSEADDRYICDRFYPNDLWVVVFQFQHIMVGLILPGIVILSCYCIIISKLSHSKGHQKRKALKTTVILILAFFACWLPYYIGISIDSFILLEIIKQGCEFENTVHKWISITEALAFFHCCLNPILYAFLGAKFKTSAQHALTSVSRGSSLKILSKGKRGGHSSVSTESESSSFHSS

[2] = target: T3, Cysteinyl leukotriene receptor CysLT1 (Homo sapiens, UniProt Q9Y271); test: radioligand binding (Table S2); conditions: [3H] LTD4, Human recombinant CHO cells
T3 construct: host or cells: CHO cells
T3 sequence (Q9Y271 whole entry): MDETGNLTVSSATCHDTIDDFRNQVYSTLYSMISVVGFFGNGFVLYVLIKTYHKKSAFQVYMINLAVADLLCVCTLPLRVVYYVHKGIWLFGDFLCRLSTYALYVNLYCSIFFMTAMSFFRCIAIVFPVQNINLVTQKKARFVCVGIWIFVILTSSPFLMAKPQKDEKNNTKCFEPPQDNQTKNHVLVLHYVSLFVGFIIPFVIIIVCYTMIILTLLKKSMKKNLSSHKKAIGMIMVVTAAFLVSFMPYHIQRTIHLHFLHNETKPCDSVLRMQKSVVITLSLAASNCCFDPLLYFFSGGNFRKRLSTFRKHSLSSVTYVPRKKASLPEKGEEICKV

Endothelin ETA = target: T4, Endothelin ETA (Homo sapiens, UniProt P25101); test: radioligand binding (Table S2); conditions: [125I] Endothelin-1, Human recombinant CHO cells
T4 construct: host or cells: CHO cells

[3] = test system: Glutamate ionotropic, NMDA; test: radioligand binding (Table S2); conditions: [3H] CGP 39653, Rat cerebral cortex
Melatonin MT2 (ML1B) = target: T5, Melatonin MT2 (ML1B) (Homo sapiens, UniProt P49286); test: radioligand binding (Table S2); conditions: [125I] 2-iodomelatonin, Human recombinant CHO cells
T5 construct: host or cells: CHO cells
T5 sequence (P49286 whole entry): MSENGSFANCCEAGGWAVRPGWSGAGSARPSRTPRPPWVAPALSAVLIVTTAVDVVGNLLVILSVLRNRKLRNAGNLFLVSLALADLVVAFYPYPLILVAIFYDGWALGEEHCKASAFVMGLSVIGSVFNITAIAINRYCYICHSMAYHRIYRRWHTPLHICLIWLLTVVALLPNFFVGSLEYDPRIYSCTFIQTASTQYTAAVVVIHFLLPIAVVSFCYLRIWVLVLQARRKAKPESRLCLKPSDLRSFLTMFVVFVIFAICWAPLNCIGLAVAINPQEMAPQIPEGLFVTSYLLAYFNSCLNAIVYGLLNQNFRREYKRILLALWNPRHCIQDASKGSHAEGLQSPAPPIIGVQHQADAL

[4] = target: T6, Norepinephrine transporter (Homo sapiens, UniProt P23975); test: radioligand binding (Table S2); conditions: [3H] Nisoxetine, Human recombinant CHO cells
T6 construct: host or cells: CHO cells
T6 sequence (P23975 whole entry): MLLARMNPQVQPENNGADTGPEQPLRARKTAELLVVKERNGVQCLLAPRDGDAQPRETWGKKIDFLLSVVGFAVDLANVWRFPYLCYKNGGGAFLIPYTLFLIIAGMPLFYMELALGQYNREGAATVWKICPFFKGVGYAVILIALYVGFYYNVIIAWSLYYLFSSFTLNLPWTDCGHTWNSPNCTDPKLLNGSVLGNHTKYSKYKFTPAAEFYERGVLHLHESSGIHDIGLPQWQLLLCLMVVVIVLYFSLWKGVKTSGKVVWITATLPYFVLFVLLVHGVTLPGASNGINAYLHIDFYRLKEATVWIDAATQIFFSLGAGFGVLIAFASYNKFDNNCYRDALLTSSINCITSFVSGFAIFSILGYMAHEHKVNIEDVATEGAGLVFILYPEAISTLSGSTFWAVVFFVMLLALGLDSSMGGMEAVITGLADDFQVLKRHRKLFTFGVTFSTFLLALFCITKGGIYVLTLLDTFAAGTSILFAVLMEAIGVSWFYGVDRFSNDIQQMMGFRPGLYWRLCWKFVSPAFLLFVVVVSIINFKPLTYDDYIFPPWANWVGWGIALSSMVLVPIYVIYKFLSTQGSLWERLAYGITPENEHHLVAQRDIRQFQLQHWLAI

[5] = test system: Potassium channel voltage gated KV channel; format: binding; conditions: [125I] α-dendrotoxin, Rat cerebral cortex
Prostanoid EP2 = target: T7, Prostanoid EP2 (Homo sapiens, UniProt P43116); test: radioligand binding (Table S2); conditions: [3H] Prostaglandin E2, Human recombinant HEK-293 cells
T7 construct: host or cells: HEK-293 cells

Serotonin 5-HT7 = target: T8, Serotonin 5-HT7 (Homo sapiens, UniProt P34969); test: radioligand binding (Table S2); conditions: [3H] LSD, Human recombinant CHO cells
T8 construct: host or cells: CHO cells

[6] = target: T9, Serotonin 5-HT transporter (Homo sapiens, UniProt P31645); test: radioligand binding (Table S2); conditions: [3H] Imipramine, Human recombinant CHO cells
T9 construct: host or cells: CHO cells
T9 sequence (P31645 whole entry): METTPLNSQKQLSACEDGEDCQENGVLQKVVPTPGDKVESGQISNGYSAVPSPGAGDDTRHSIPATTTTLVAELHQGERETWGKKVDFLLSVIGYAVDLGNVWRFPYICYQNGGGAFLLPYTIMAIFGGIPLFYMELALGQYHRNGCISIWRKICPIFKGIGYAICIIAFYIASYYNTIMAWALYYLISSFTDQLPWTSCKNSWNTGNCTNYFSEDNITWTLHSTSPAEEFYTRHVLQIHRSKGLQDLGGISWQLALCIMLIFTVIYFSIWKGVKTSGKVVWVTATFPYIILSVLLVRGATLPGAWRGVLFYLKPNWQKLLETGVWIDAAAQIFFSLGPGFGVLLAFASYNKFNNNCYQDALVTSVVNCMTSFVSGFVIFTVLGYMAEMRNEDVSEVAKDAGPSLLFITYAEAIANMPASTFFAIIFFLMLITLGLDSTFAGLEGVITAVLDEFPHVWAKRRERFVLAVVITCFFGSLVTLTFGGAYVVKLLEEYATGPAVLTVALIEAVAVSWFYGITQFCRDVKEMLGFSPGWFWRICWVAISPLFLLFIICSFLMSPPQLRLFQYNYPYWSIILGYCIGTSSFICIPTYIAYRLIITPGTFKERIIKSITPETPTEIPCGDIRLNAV

IRK (InsR) = target: T10, IRK (InsR) (Homo sapiens, UniProt P06213); test: enzyme assay (Table S2); format: biochemical; conditions: ATP + Ulight-PolyGAT (50 nM), LANCE
T10 construct: Eurofins (assay provider)
T10 sequence (P06213 28-1382): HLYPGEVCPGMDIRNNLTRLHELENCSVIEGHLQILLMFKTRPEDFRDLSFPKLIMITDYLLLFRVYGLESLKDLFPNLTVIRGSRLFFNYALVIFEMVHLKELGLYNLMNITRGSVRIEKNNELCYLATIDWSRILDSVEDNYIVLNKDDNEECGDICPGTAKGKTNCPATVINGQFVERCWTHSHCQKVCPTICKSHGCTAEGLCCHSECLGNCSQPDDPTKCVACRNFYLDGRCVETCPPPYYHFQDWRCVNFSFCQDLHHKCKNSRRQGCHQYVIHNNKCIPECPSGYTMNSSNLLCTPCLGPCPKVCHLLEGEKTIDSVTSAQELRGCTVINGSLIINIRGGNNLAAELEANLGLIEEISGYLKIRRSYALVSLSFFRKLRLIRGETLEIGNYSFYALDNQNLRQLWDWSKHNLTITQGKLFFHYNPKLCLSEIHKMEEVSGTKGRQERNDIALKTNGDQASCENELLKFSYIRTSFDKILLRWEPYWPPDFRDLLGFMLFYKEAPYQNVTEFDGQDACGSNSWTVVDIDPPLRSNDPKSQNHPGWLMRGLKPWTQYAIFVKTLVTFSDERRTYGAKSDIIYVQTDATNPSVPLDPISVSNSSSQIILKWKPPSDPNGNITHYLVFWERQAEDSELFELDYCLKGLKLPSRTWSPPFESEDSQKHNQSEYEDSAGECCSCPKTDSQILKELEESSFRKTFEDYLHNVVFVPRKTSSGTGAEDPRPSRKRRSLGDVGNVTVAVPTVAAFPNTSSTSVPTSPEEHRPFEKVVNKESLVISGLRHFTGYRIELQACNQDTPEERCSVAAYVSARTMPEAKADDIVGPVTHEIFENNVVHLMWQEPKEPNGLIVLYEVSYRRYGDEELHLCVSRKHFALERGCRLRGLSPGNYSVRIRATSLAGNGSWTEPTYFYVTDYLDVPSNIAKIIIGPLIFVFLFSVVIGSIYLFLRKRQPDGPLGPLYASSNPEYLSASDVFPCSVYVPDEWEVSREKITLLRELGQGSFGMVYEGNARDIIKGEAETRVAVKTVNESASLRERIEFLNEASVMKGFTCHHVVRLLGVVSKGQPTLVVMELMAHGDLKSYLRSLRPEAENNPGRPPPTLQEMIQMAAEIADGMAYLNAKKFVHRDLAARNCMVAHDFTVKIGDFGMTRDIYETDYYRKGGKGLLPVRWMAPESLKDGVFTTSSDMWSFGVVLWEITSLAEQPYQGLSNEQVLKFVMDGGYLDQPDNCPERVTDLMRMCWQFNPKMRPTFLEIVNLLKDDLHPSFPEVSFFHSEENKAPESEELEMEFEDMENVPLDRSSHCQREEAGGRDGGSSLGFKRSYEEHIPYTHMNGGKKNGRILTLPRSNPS

PDE4D2 = PDE4D2 (Homo sapiens, UniProt Q08499); test: enzyme assay (Table S2); format: biochemical; conditions: [3H]cAMP + cAMP (0.5 µM), Scintillation counting
Chain of PDE4D2 (Q08499 303-809 limits assumed): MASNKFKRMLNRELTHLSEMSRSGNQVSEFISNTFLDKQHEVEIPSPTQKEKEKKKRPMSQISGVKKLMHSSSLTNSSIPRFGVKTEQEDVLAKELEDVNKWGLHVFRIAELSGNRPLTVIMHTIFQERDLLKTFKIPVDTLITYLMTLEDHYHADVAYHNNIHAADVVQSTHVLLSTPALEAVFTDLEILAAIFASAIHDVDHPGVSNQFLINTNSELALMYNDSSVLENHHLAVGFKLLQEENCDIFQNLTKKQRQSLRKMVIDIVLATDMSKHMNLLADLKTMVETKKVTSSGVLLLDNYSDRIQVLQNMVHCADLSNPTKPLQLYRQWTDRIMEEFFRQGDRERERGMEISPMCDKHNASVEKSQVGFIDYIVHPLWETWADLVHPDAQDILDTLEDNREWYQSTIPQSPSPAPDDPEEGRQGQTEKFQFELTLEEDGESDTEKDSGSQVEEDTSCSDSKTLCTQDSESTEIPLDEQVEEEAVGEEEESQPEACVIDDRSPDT

PKCε = target: T11, PKCε (Homo sapiens, UniProt Q02156); test: enzyme assay (Table S2); format: biochemical; conditions: HTRF
T11 construct: host or cells: insect cells

Vasopressin V1a = target: T12, Vasopressin V1a (Homo sapiens, UniProt P37288); test: functional assay, intracellular [Ca2+], CHO cells (Table S2); format: cell-based; conditions: AVP (10 nM)
T12 construct: host or cells: CHO cells
T12 sequence (P37288 whole entry): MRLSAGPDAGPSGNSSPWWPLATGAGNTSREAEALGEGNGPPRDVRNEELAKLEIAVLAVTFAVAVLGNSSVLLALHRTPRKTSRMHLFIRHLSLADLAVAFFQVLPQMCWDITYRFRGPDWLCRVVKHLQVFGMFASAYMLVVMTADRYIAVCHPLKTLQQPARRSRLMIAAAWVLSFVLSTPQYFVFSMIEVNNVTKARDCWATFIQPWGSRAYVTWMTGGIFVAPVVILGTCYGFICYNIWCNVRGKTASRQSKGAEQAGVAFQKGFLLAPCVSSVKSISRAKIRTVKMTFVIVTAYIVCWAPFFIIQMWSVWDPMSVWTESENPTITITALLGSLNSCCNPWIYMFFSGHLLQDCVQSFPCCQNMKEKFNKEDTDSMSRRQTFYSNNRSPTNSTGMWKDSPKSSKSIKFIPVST

[7] = target: T13, cynomolgus monkey B2 receptor (Macaca fascicularis, UniProt A0A7N9CWN6); test: cell-based
T13 sequence (A0A7N9CWN6 1-391): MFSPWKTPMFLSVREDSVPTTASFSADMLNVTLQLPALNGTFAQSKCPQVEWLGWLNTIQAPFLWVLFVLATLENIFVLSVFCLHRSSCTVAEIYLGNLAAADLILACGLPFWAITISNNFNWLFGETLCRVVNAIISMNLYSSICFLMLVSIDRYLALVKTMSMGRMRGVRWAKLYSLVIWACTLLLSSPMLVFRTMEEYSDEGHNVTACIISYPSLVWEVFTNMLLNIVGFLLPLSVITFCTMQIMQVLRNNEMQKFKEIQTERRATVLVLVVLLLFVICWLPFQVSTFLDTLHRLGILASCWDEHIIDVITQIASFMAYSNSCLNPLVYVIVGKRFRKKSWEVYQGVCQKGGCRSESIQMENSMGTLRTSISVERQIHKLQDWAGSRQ

B2 receptor = target: T14, B2 receptor (Homo sapiens, UniProt P30411); test: [^3H]BK competition binding assay, CHO cell membranes; design: host or cells: CHO cells; conditions: competition with 0.3 nM [^3H]BK
T14 sequence (P30411 1-391): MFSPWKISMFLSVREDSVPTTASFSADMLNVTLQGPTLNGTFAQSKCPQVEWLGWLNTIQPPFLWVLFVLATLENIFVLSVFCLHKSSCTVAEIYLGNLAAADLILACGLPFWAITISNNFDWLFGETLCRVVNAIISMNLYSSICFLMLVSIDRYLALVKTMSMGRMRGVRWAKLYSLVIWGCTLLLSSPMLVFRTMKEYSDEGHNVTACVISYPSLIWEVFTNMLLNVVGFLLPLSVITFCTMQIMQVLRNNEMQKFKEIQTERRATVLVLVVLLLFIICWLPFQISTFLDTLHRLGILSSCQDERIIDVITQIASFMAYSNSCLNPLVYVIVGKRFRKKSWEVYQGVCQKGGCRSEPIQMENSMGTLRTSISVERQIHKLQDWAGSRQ

Angiotensine AT1 = Angiotensine AT1 (Homo sapiens, UniProt P30556); test: radioligand binding (Table S2); conditions: read-out: % Inhibition @ 10 µM
Glucagon = Glucagon (Homo sapiens, UniProt P47871); test: radioligand binding (Table S2); conditions: read-out: % Inhibition @ 10 µM
[8] = test system: Muscarinic, oxotremorine M; test: radioligand binding (Table S2); conditions: [3H] Oxotremorine M, Wistar rat cerebral cortex

Compound `Cc1cc(-c2ncnn2C)c2cccc(OCc3c(Cl)cc(F)cc3[C@H](C)NC(=O)COC(F)F)c2n1` [Compound 3, (S)-N-(1-(3-chloro-5-fluoro-2-((2-methyl-4-(1-methyl-1H-1,2,4-triazol-5-yl)quinolin-8-yloxy)methyl)phenyl)ethyl)-2-(difluoromethoxy)acetamide] has an inhibition at 10 µM [1] of 42.3%, an inhibition at 10 µM (Bombesin BB1) of 6.7% and an inhibition at 10 µM (Chemokine CXCR4) of 10%. For the same compound, the inhibition at 10 µM [2] was -2.2%, the inhibition at 10 µM (Endothelin ETA) was -2.1% and the “% Inhibition @ 10 µM” value [3] was 5.1%. For the same compound, the inhibition at 10 µM (Melatonin MT2 (ML1B)) was 4.8%, the inhibition at 10 µM [4] was 0.9% and the “% Inhibition @ 10 µM” value [5] was 2.3%. It also gave an inhibition at 10 µM (Prostanoid EP2) of 12%, an inhibition at 10 µM (Serotonin 5-HT7) of 3.3% and an inhibition at 10 µM [6] of -23.4%. It also gave an inhibition at 10 µM (IRK (InsR)) of -17.3%, an inhibition at 10 µM (PDE4D2) of 4.4% and an inhibition at 10 µM (PKCε) of 6.8%. It also gave an IC50 (Vasopressin V1a; read-out: IC50 (µM), functional antagonism) of 9.1 µM, a Kb (Vasopressin V1a; read-out: Kb (µM), functional antagonism) of 0.31 µM and an inhibition at 10 µM (Vasopressin V1a; CHO, read-out: % inhibition of reference agonist response @ 10 µM (antagonist effect), 10 µM) of 51.9%. It also gave an IC50 [7] of 6.25 nM, a Kb [7] of 1.36 nM and an IC50 (B2 receptor; arithmetic mean, read-out: IC50 (nM) Mean) of 0.97 nM. It also gave a Ki (B2 receptor; arithmetic mean, read-out: Ki (nM) Mean) of 0.5 nM, an IC50 (B2 receptor; geometric mean, read-out: IC50 (nM) Geometric mean) of 0.97 nM and a Ki (B2 receptor; geometric mean, read-out: Ki (nM) Geometric mean) of 0.5 nM. The inhibition at 10 µM (Angiotensine AT1) was -4.1%, the inhibition at 10 µM (Glucagon) was -0.6% and the “% Inhibition @ 10 µM” value [8] was 18%.
